Source: patent US20230372302A1 (priority 2019, published 2023)
Entries after “also recorded” stand apart in the source; their conditions may differ. Counter-ions that a name gives are not always drawn.

Experiments:
[1] = system: T1, alpha 1 adrenergic receptor subtypes (1A, 1B, 1D); type: binding, human
T1 construct: rows headed: BA at all subtypes; other: subnanomolar range; Ki at alpha 1 adrenergic receptor subtypes; other: result in words

[2] = target: T2, recombinant human alpha 1D adrenergic receptor (ADR1D) (Homo sapiens, UniProt P25100)
T2 sequence (P25100 1-572): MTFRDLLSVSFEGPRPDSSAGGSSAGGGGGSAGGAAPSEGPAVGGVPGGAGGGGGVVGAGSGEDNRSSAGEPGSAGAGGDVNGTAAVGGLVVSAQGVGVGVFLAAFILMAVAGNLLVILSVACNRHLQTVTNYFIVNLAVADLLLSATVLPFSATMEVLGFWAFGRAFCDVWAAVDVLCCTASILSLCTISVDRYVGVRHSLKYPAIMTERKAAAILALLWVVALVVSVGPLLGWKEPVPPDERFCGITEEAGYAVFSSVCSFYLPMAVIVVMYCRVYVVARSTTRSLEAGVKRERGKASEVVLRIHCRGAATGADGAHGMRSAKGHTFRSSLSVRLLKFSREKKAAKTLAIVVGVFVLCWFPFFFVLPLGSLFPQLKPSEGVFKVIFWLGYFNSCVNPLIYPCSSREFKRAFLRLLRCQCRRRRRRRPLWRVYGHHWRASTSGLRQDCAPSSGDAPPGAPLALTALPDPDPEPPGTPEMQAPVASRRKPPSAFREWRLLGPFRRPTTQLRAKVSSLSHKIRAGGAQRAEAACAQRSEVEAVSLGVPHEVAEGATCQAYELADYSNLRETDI

[3] = target: T3, recombinant human alpha 1B adrenergic receptor (ADR1B) (Homo sapiens, UniProt P35368)
[4] = system: alpha 1 subtypes (1A, 1B, 1D); type: cell-based, human
[5] = target: recombinant human alpha 1A adrenergic receptor (ADR1A) (Homo sapiens, UniProt P35348); type: binding
[6] = system: vocal cords and respiratory muscles of rats; conditions: rat, in vivo
rat = conditions: in vivo; cited from earlier work
[7] = human, in vivo; cited from earlier work
neuromuscular blockade = conditions: human, in vivo; cited from earlier work
[8] = system: VC and laryngeal muscles/laryngospasm; conditions: rat, in vivo; cited from earlier work
[9] = target: vesicular monoamine transporter-VMAT (Homo sapiens, UniProt Q05940); assay: cell-based
[10] = target: T4, recombinant human VMAT2 transporters (Homo sapiens, UniProt Q05940); type: binding
T4 construct: expressed in transfected cells; host or cells: HEK-293

[11] = target: T3, recombinant human alpha 1B adrenergic receptor (ADR1B); assay: biochemical
[12] = target: T5, α-1 adrenergic receptor 1A subtype (Homo sapiens, UniProt P35348); conditions: cited from earlier work
T5 sequence (P35348 1-466): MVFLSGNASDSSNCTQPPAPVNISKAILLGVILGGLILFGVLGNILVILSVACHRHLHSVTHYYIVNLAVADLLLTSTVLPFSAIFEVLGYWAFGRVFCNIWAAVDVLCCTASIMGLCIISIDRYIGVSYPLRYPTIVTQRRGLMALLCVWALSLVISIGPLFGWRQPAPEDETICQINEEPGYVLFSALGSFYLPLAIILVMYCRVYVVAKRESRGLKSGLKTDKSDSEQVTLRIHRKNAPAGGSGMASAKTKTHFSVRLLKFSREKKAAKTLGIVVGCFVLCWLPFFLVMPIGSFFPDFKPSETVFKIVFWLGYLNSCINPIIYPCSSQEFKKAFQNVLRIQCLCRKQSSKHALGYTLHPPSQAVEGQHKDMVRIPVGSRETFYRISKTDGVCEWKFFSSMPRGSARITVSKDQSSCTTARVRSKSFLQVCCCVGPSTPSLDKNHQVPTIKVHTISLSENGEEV

[13] = target: T2, recombinant human alpha 1D adrenergic receptor (ADR1D); assay: biochemical

T3 sequence (P35368 whole entry): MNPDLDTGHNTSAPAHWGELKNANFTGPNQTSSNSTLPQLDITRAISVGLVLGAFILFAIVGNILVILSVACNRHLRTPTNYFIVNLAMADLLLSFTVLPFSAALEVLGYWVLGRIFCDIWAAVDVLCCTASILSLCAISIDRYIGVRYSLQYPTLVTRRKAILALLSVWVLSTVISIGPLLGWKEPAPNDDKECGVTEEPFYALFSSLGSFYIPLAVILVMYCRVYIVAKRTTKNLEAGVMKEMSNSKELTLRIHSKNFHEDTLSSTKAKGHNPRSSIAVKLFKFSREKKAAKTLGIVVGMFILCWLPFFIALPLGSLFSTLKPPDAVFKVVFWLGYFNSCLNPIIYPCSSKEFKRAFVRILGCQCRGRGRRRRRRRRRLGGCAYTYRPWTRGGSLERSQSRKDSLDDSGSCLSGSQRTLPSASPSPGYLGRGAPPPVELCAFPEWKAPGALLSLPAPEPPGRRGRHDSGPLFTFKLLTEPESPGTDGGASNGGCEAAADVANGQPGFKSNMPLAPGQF
T4 sequence (Q05940 whole entry): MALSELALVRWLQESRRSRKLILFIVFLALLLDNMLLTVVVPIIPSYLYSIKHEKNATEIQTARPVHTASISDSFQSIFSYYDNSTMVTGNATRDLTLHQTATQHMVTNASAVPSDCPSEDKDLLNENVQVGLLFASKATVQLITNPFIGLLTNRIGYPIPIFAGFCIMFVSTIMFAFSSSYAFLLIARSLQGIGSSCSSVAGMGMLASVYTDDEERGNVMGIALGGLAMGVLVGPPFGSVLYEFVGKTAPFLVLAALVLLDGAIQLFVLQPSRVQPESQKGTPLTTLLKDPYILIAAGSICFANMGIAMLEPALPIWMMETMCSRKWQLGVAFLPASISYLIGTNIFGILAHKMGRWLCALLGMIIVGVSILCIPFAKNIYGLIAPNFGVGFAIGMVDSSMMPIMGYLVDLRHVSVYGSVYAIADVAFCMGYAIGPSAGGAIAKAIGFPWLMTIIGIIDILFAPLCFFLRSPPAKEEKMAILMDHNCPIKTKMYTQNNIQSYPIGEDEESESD
Sequence of vesicular monoamine transporter-VMAT (Q05940 whole entry): as above

Structure (SMILES): CN1CC[C@]23c4c5ccc(O)c4O[C@H]2[C@@H](O)C=C[C@H]3[C@H]1C5 [morphine]
- binding at alpha 1 adrenergic receptor subtypes [1]: not morphine; also recorded: neither morphine (MSO4) or naloxone had any notable or relevant binding activity
- binding at alpha 1D (bind all alpha 1 subtypes) [2]: not morphine or naloxone bind
- binding at alpha 1B (bind all alpha 1 subtypes) [3]: not morphine or naloxone bind
- act as antagonists at all alpha 1 subtypes [4]: not morphine
- binding at alpha 1A (bind all alpha 1 subtypes) [5]: not morphine or naloxone bind

Structure (SMILES): COC(=O)[C@H]1[C@@H](OC(=O)c2ccccc2)C[C@@H]2CC[C@H]1N2C [cocaine]
- vocal cord closure and chest wall rigidity effect (specific to F/FA) [6]: not demonstrated
- LD85 (rat): 70 mg/kg

Structure (SMILES): NC[C@H](O)c1ccc(O)c(O)c1 [norepinephrine]
- binding at the 1D subtype over 1A and 1B receptor subtypes, respectively [2]: 9-20 fold

Structure (SMILES): C[C@H](Cc1cc2c(c(C(N)=O)c1)N(CCCO)CC2)NCCOc1ccccc1OCC(F)(F)F [SILODOSIN, (3-Hydroxypropyl)-5-[(2R)-2-({2-[2-(2,2,2trifluoroethoxy)phenoxy]ethyl}amino)propyl]-2,3-d hydro-1H-indole-7-carboxamide]
- dizziness and orthostatic hypotension [7]: 3%
- subjects with syncope [7]: 1/897

Structure (SMILES): C[N+](C)(C)CCOC(=O)CCC(=O)OCC[N+](C)(C)C [succinylcholine]
- onset of effect given intramuscularly (neuromuscular blockade): 2 to 3 min
- persistence of maximum blockade (neuromuscular blockade): about 2 minutes
- recovery time after maximum blockade (neuromuscular blockade): 4 to 6 min
- time until neuromuscular blockade develops (neuromuscular blockade): about 1 minute

Structure (SMILES): C=CCN1CC[C@]23c4c5ccc(O)c4O[C@H]2C(=O)CC[C@@]3(O)[C@H]1C5.Cl [naloxone, 17-Allyl-4,5α-epoxy-3,14-dihydroxymorphinan-6-one hydrochloride]
- binding at alpha 1 adrenergic receptor subtypes [1]: neither morphine (MSO4) or naloxone had any notable or relevant binding activity
- impact on the effects of F on VC and laryngeal muscles/laryngospasm [8]: minimal impact

Structure (SMILES): CN[C@@H](C)Cc1ccccc1 [methamphetamine]
- IC50 [9]: ~4 µM
- vocal cord closure and chest wall rigidity effect (specific to F/FA) [6]: not demonstrated
- LD90 (rat): 100 mg/kg
- binding to VMAT2 transporter [10]: bind to recombinant human VMAT2 transporters

Structure (SMILES): C=CC[N+]1([C@H]2C[C@H]3[C@@H]4CC[C@H]5C[C@H](O)[C@@H](N6CCOCC6)C[C@]5(C)[C@H]4CC[C@]3(C)[C@H]2OC(C)=O)CCCC1 [rocuronium bromide, 1-[17β-(acetyloxy)-3α-hydroxy-2β-(4-morpholinyl)-5α-androstan-16β-yl]-1-(2-propenyl)pyrrolidinium bromide]
- time to completed intubation in most patients (neuromuscular blockade): ≤ 2 min
- time to excellent or good intubating conditions in most patients (neuromuscular blockade): less than 2 minutes
- time to maximum blockade in most patients (neuromuscular blockade): less than 3 minutes
- time to neuromuscular block sufficient for intubation (80% block or greater), median (range) (neuromuscular blockade): 1 (0.4-6) minute(s)

Structure (SMILES): CCOc1ccccc1OCCN[C@H](C)Cc1ccc(OC)c(S(N)(=O)=O)c1 [tamsulosin, (−)-(R)-5-[2-[[2-(o-Ethoxyphenoxy)ethyl]amino]propyl]-2-methoxybenzenesulfon-amide, monohydrochloride]
- Ki [11]: < 0.001 µM
- binding affinity at the 1A subtype greater over other α-1 antagonists [12]: 12-30 times
- Ki [13]: < 0.001 µM

Structure (SMILES): CC(=O)Oc1ccc2c3c1O[C@H]1[C@@H](OC(C)=O)C=C[C@H]4[C@@H](C2)N(C)CC[C@@]341 [heroin]
- vocal cord closure and chest wall rigidity effect (specific to F/FA) [6]: not demonstrated
